From patent publication US7396837B2, “Antitumoral analogs of lamellarins” (Pharma Mar, S.A.U., priority 2002, dated 2008)

What was measured:
Format in all cases: cell-based
SK-MEL-28 = assay: SRB colorimetric cell growth inhibition assay, SK-MEL-28
Procedure, shortened: (§1)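 Tested samples remained on human cancer cell cultures throughout the incubation; viable biomass was then stained with SRB and read colorimetrically.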

IGROV = assay: SRB colorimetric cell growth inhibition assay, IGROV
Procedure, shortened: as §1

IGROV-ET = assay: SRB colorimetric cell growth inhibition assay, IGROV-ET (ET-743 resistant)
Procedure, shortened: as §1

LoVo-Dox = assay: SRB colorimetric cell growth inhibition assay, LoVo-Dox (MDR)
Procedure, shortened: as §1

LNCaP = assay: SRB colorimetric cell growth inhibition assay, LNCaP
Procedure, shortened: as §1

DU-145 = assay: SRB colorimetric cell growth inhibition assay, DU-145
Procedure, shortened: as §1

SK-BR-3 = assay: SRB colorimetric cell growth inhibition assay, SK-BR-3
Procedure, shortened: as §1

HeLa = assay: SRB colorimetric cell growth inhibition assay, HeLa; conditions: Homo sapiens, HeLa
Procedure, shortened: as §1

LoVo = assay: SRB colorimetric cell growth inhibition assay, LoVo
Procedure, shortened: as §1

A-549 = assay: SRB colorimetric cell growth inhibition assay, A-549
Procedure, shortened: as §1

K-562 = assay: SRB colorimetric cell growth inhibition assay, K-562
Procedure, shortened: as §1

HeLa-APL = assay: SRB colorimetric cell growth inhibition assay, HeLa-APL (aplidine resistant); conditions: Homo sapiens
Procedure, shortened: as §1

PANC-1 = assay: SRB colorimetric cell growth inhibition assay, PANC-1
Procedure, shortened: as §1

HT-29 = assay: SRB colorimetric cell growth inhibition assay, HT-29
Procedure, shortened: as §1

Question: What does the source list for `COc1cc(-c2c3c4cc(OC)c(OC(=O)[C@@H](N)C(C)C)cc4oc(=O)c3n3ccc4c(OC(=O)[C@@H](N)C(C)C)c(OC)c(OC)cc4c23)ccc1OC(=O)[C@@H](N)C(C)C` [Compound 190]?
Answer: IC (TGI) (SK-MEL-28; Homo sapiens, SK-MEL-28, MEL-28, total growth inhibition (cytostatic effect), read-out: TGI MEL-28): 10700 nM; GI50 (SK-MEL-28; MEL-28, GI=growth inhibition, read-out: GI50 MEL-28): 9150 nM; CC50 (SK-MEL-28; human): 10700 nM; GI50 (IGROV; IGROV, GI=growth inhibition, read-out: GI50 IGROV): 134 nM; TGI IGROV (IGROV; IGROV, total growth inhibition (cytostatic effect)): 8.95E−07 Molar; CC50 (IGROV; human): 8320 nM; GI50 (IGROV-ET; IGROV-ET, GI=growth inhibition, read-out: GI50 IGROV-ET): 102 nM; TGI IGROV-ET (IGROV-ET; IGROV-ET, total growth inhibition (cytostatic effect)): 1.20E−06 Molar; CC50 (IGROV-ET; human): 6420 nM; IC (TGI) (LoVo-Dox; Homo sapiens, LOVO-DOX, total growth inhibition (cytostatic effect), read-out: TGI LOVO-DOX): 1370 nM; CC50 (LoVo-Dox; Homo sapiens, read-out: LC50 LOVO-DOX, LOVO-DOX, cell killing (cytotoxic effect)): 7680 nM; GI50 (LoVo-Dox; LOVO-DOX, GI=growth inhibition, read-out: GI50 LOVO-DOX): 310 nM; GI50 (LNCaP; LN-caP, GI=growth inhibition, read-out: GI50 LN-caP): 48.6 nM; TGI LN-caP (LNCaP; LN-caP, total growth inhibition (cytostatic effect)): 2.97E−07 Molar; CC50 (LNCaP; human): 1970 nM; GI50 (DU-145; DU-145, GI=growth inhibition, read-out: GI50 DU-145): 57.5 nM; TGI DU-145 (DU-145; DU-145, total growth inhibition (cytostatic effect)): 2.63E−07 Molar; CC50 (DU-145; human): 10700 nM; GI50 (SK-BR-3; SK-BR-3, GI=growth inhibition, read-out: GI50 SK-BR-3): 92.2 nM; TGI SK-BR-3 (SK-BR-3; SK-BR-3, total growth inhibition (cytostatic effect)): 3.83E−07 Molar; CC50 (SK-BR-3; human): 2630 nM; CC50 (HeLa; read-out: LC50 HELA, HELA, cell killing (cytotoxic effect)): 3930 nM; IC (TGI) (HeLa; read-out: TGI HELA): 1310 nM; GI50 (HeLa; GI=growth inhibition, read-out: GI50 HELA): 83.3 nM; CC50 (LoVo; Homo sapiens, LoVo, read-out: LC50 LOVO, LOVO, cell killing (cytotoxic effect)): 5460 nM; IC (TGI) (LoVo; Homo sapiens, LoVo, total growth inhibition (cytostatic effect), read-out: TGI LOVO): 1200 nM; GI50 (LoVo; LOVO, GI=growth inhibition, read-out: GI50 LOVO): 285 nM; GI50 (A-549; A-549, GI=growth inhibition, read-out: GI50 A-549): 167 nM; IC (TGI) (A-549; Homo sapiens, A549, A-549, total growth inhibition (cytostatic effect), read-out: TGI A-549): 1660 nM; CC50 (A-549; Homo sapiens, A549, read-out: LC50 A-549, A-549, cell killing (cytotoxic effect)): 10700 nM; IC (TGI) (K-562; Homo sapiens, K562, K-562, total growth inhibition (cytostatic effect), read-out: TGI K-562): 7120 nM; CC50 (K-562; Homo sapiens, K562, read-out: LC50 K-562, K-562, cell killing (cytotoxic effect)): 10700 nM; GI50 (K-562; K-562, GI=growth inhibition, read-out: GI50 K-562): 71.8 nM; GI50 (HeLa-APL; read-out: GI50 HELA-APL): 89.9 nM; CC50 (HeLa-APL; read-out: LC50 HELA-APL, HELA-APL, cell killing (cytotoxic effect)): 5200 nM; IC (TGI) (HeLa-APL; read-out: TGI HELA-APL): 1720 nM; IC (TGI) (PANC-1; Homo sapiens, PANC-1, PANC-1, total growth inhibition (cytostatic effect), read-out: TGI PANC-1): 3500 nM; CC50 (PANC-1; Homo sapiens, PANC-1, read-out: LC50 PANC-1, PANC-1, cell killing (cytotoxic effect)): 10700 nM; GI50 (PANC-1; PANC-1, GI=growth inhibition, read-out: GI50 PANC-1): 376 nM; GI50 (HT-29; HT-29, GI=growth inhibition, read-out: GI50 HT-29): 2990 nM; CC50 (HT-29; Homo sapiens, HT-29, read-out: LC50 HT-29, HT-29, cell killing (cytotoxic effect)): 10700 nM; IC (TGI) (HT-29; Homo sapiens, HT-29, total growth inhibition (cytostatic effect), read-out: TGI HT-29): 10700 nM
